Experimental data reported in ChEMBL document CHEMBL3259572, “Euodenine A: a small-molecule agonist of human TLR4” (J Med Chem, 2014).
The source made the active and inactive calls. The rule behind the calls is not given here.

Experiments:
Toll-like receptor 4 [1] = target: T1, Toll-like receptor 4 (Homo sapiens, UniProt O00206); test: Intrinsic activity at human recombinant TLR4 expressed in HEK293 cells by SEAP reporter assay relative to LPS; assay type: cell-based
[2] = Cytotoxicity against human PBMC by WST-1 cell proliferation assay; assay type: cell-based; conditions: PBMC (peripheral blood mononuclear cells)
[3] = target: T2, Toll-like receptor 9 (Homo sapiens) (UniProt Q9NR96); test: Agonist activity at human recombinant TLR9 expressed in HEK293 cells at 10 uM by SEAP reporter assay; assay type: cell-based
T2 sequence (whole entry): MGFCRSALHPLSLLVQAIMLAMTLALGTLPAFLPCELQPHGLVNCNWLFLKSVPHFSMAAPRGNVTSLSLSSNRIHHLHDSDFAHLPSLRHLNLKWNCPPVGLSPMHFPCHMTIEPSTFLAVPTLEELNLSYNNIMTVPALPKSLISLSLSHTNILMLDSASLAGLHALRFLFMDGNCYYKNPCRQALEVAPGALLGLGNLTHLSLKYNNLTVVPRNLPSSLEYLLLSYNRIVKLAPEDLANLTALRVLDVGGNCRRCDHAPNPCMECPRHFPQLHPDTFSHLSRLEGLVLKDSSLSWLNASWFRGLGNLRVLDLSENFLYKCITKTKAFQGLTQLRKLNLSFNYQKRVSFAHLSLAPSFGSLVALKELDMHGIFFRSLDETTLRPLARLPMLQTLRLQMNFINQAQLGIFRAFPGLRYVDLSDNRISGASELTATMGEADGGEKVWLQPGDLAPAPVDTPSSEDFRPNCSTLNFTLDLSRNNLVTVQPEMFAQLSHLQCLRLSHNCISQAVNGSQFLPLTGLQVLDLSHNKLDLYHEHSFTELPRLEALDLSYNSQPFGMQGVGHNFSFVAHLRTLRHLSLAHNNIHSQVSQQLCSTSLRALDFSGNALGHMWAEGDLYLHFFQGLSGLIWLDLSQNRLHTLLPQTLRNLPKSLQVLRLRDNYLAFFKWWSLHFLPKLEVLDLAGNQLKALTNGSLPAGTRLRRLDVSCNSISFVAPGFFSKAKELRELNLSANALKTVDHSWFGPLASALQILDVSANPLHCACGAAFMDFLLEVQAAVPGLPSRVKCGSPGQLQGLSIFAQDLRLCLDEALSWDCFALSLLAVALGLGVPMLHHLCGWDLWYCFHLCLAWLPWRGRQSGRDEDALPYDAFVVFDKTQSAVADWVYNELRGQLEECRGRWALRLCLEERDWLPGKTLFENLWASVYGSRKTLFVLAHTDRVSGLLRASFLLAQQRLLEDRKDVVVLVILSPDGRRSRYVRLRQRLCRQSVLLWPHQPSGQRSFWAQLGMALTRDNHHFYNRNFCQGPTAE

Toll-like receptor 4 [4] = target: T1, Toll-like receptor 4; test: Agonist activity at chimeric extracellular domain of human TLR4 fused with human intracellular domain expressed in HEK293 cells by NFkappaB reporter assay; assay type: cell-based
[5] = target: Toll-like receptor 2 (Homo sapiens) (UniProt O60603); test: Agonist activity at human recombinant TLR2 expressed in HEK293 cells by SEAP reporter assay; assay type: cell-based
[6] = target: Toll-like receptor 3 (Homo sapiens) (UniProt O15455); test: Agonist activity at human recombinant TLR3 expressed in HEK293 cells at 10 uM by SEAP reporter assay; assay type: cell-based
Toll-like receptor 4 [7] = target: T1, Toll-like receptor 4; test: Agonist activity at human recombinant TLR4 expressed in HEK293 cells coexpressed with mouse MD2 assessed as TNFalpha response by NFkappaB reporter assay; assay type: cell-based
PBMC [8] = test: Suppression of PHA-induced IL-5 release in human PBMC at 10 uM by ELISA; assay type: functional, cell-based
PBMC [9] = test: Induction of IL-10 production in human PBMC at 10 uM by ELISA; assay type: functional, cell-based
HEK293 = test: Agonist activity at chimeric extracellular domain of human TLR4 fused with mouse intracellular domain expressed in HEK293 cells by NFkappaB reporter assay; assay type: cell-based

T1 sequence (O00206 whole entry): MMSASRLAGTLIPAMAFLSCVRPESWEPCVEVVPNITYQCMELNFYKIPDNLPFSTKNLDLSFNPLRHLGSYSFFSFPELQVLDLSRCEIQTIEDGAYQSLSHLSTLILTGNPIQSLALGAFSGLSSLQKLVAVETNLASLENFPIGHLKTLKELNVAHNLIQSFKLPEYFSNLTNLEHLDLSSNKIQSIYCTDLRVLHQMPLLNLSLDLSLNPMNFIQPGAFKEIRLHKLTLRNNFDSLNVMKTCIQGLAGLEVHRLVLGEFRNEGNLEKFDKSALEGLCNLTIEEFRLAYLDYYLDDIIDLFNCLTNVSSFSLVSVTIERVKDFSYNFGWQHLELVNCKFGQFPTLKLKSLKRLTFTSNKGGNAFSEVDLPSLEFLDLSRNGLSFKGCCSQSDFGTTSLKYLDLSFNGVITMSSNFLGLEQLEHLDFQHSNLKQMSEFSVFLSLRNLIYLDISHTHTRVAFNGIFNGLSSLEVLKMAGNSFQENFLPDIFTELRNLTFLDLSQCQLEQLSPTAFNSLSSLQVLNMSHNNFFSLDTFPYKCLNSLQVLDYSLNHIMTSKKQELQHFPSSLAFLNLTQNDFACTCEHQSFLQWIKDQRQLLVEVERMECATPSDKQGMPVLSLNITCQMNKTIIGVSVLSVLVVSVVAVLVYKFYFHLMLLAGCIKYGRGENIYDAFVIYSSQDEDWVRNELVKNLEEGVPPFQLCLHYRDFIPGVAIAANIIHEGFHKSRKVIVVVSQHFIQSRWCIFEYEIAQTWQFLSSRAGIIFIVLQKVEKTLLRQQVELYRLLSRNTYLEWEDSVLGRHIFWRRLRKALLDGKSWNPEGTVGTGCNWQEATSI
Chain of Toll-like receptor 3 (Homo sapiens) (O15455 whole entry): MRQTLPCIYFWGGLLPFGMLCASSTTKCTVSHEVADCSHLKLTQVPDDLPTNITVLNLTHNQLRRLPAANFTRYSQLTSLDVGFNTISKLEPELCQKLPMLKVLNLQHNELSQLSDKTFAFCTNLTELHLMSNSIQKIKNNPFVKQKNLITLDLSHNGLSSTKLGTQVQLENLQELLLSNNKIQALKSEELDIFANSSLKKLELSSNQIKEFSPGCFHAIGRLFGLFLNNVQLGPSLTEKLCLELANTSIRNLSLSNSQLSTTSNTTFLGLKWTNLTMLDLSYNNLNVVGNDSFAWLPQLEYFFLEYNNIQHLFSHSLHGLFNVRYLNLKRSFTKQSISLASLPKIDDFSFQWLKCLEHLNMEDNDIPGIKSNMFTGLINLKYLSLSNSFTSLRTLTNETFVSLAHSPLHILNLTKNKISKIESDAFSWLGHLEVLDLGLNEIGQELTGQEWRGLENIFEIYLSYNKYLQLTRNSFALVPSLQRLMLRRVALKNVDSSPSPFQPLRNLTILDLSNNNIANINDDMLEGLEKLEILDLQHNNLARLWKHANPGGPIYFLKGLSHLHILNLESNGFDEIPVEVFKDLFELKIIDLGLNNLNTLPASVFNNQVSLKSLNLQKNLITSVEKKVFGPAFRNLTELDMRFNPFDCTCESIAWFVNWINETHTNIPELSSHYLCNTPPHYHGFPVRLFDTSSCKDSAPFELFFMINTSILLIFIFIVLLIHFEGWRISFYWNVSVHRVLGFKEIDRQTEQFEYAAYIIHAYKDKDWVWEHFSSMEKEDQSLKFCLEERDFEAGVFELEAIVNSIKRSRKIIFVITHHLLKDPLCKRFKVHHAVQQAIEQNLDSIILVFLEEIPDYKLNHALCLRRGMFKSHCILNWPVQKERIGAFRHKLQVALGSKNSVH
Chain of Toll-like receptor 2 (Homo sapiens) (O60603 whole entry): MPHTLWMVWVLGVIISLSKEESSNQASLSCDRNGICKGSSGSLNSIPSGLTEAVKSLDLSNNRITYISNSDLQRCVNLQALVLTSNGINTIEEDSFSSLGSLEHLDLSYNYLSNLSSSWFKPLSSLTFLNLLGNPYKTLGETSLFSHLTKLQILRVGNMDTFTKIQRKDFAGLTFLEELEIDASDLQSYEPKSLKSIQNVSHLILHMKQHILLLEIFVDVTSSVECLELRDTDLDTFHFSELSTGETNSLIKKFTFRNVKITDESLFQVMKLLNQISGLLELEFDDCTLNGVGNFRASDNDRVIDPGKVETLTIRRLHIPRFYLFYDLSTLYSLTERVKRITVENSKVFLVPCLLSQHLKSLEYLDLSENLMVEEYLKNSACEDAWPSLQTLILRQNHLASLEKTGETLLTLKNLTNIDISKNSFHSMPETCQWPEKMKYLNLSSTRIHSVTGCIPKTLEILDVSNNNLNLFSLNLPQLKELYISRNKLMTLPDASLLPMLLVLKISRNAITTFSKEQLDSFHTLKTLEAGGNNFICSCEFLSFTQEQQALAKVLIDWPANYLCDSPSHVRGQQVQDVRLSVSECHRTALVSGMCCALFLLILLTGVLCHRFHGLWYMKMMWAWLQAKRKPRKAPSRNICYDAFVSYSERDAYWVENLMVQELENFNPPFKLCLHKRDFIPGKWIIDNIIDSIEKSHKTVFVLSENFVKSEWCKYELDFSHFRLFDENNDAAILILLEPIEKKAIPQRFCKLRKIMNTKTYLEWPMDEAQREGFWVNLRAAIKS

COc1cc([C@@H]2[C@@H](C)[C@H]3[C@@H]2c2c(c4ccccc4[nH]c2=O)OC3(C)C)cc(OC)c1OC
Intrinsic activity (Toll-like receptor 4 [1]): 0.95 | CC50 [2]: > 33 µM | Activity [3]: inactive | Activity (Toll-like receptor 4 [4]): Active | Activity [5]: inactive | Activity [6]: inactive | Activity (Toll-like receptor 4 [7]): inactive | inhibition (PBMC [8]): Active | Activity (PBMC [9]): Active | Activity (HEK293): Active
